Melting point, IC50 and Ki data for ten molecules are collected here from patent publication US20060120956A1, “Imaging agents comprising barbituric acid derivatives” (priority 2002, published 2006).

Series [1] deals with T1, MMP-9 (Homo sapiens, UniProt P14780). The series is described as follows: In vitro metalloproteinase inhibition assay, fluorogenic substrate (method of Huang et al.). It counts as biochemical. As to conditions: fluorogenic substrate 1 μM, MMP 1 nM, inhibitor 1000 pM-100 μM. The text has this:
In Vitro Metalloproteinase Inhibition Assay
Target sequence in this assay (P14780 94-707): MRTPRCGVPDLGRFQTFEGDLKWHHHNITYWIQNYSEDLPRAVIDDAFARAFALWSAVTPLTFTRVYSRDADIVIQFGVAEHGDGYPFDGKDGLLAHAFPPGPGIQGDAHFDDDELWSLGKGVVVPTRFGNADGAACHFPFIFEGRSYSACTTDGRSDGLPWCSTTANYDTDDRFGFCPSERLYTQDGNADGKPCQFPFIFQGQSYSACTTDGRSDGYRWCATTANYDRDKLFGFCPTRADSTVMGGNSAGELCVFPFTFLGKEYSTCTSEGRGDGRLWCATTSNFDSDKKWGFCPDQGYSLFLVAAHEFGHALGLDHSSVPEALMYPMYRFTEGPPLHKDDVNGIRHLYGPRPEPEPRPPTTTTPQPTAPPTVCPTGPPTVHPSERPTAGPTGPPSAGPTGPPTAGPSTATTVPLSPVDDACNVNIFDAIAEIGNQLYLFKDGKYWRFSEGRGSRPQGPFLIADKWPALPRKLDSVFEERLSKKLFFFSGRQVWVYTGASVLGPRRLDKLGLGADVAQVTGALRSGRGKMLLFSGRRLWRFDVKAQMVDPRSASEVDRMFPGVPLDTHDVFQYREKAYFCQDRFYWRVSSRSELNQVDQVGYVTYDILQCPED

Series [2] concerns the target T2, MMP-2 (Homo sapiens, UniProt P08253).
T2 sequence (P08253 110-660): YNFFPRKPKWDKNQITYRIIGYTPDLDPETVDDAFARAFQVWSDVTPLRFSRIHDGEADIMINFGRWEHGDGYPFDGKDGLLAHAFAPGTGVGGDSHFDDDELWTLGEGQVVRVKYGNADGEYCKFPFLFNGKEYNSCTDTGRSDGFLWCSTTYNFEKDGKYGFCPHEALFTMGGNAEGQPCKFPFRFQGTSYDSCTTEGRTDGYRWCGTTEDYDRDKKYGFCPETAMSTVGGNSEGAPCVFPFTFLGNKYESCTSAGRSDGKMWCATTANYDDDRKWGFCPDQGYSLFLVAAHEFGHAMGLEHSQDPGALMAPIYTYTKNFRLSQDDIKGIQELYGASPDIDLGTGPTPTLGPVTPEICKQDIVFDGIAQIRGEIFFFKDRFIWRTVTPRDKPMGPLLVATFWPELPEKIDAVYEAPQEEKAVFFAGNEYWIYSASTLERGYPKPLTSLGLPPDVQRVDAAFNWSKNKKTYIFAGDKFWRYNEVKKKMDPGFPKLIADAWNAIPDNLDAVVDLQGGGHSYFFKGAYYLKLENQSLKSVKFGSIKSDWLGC
The conditions noted are these: read-out: MMP-2 IC50; fluorogenic substrate 1 μM, MMP 1 nM, inhibitor 1000 pM-100 μM.

Series [3] has as its target MMP-2 (Homo sapiens, UniProt P08253). The series is described as follows: Biomol MMP-2 colourimetric assay kit AK-408 (thiopeptolide substrate). It counts as biochemical. The protocol: (§1) Additional In Vitro Metalloproteinase Inhibition Assay
(§2) Compounds were screened using the following commercially available Biomol assay kits:
MMP-2 colourimetric assay kit—Catalogue number AK-408,
(§3) Which are available from Affiniti Research Products Ltd. (Palatine House, Matford Court, Exeter, EX2 8NL, UK).
(§4) (a) Test Compound Preparation.
(§5) Inhibitors were provided in powdered form, and stored at 4° C. For each inhibitor a 1 mM stock solution in DMSO was prepared, dispensed into 20 μl aliquots and these aliquots stored at −20° C. The stock solution was diluted to give 8 inhibitor concentrations (recommended: […], 5 μM, 500 nM, 50 nM, 5 nM, 500 pM, 50 pM and 5 pM). Dilutions were made in the kit assay buffer. A five-fold dilution of the inhibitor stocks is made on addition to the assay wells, therefore final concentration range is from 10 μM to 1 pM.
(§6) (b) Experimental Procedure.
(§7) Details are provided with the commercial kit, but can be summarised as follows:
(§8) Prepare test compound dilutions as above,
(§9) Add assay buffer to plate,
(§10) Add test compounds to plate
(§11) Prepare standard kit inhibitor NNGH (see kit for dilution factor)
(§12) Add NNGH to control inhibitor wells
(§13) Prepare MMP enzyme (see kit for dilution factor)
(§14) Incubate plate at 37° C. for ˜15 min
(§15) Prepare thiopeptolide substrate (see kit for dilution factor)
(§16) Count every 2 min for 1 hr, 37° C., 414 nm on a Labsystems iEMS plate reader.

Series [4] has as its target T1, MMP-9. The series can be described thus: Biomol MMP-9 colourimetric assay kit AK-410 (thiopeptolide substrate). It counts as biochemical. The protocol: as §1, §2
Target sequence in this assay (P14780 107-444 limits assumed): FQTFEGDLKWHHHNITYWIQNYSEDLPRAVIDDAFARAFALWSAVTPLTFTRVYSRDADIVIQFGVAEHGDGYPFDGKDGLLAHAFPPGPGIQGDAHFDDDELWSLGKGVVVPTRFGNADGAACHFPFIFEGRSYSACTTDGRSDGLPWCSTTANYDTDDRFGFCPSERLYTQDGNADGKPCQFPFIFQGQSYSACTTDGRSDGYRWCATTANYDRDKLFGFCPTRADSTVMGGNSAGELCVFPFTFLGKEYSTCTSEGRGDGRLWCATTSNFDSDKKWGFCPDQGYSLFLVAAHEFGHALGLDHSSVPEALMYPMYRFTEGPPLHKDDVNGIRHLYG
MMP-9 colourimetric assay kit—Catalogue number AK-410,
as §3, §4, §5, §6, §7, §8, §9, §10, §11, §12, §13, §14, §15, §16

The next series deals with MMP-12 (Homo sapiens, UniProt P39900). The series is described as follows: Biomol MMP-12 colourimetric assay kit AK-402 (thiopeptolide substrate). The format is biochemical. The protocol:
as §1, §2
MMP-12 colourimetric assay kit—Catalogue number AK-402,
as §3, §4, §5, §6, §7, §8, §9, §10, §11, §12, §13, §14, §15, §16

SMILES strings stand for the structures. Like-named read-outs stand apart in the source and are kept apart here.

Chain of MMP-12 (P39900 106-268 limits assumed): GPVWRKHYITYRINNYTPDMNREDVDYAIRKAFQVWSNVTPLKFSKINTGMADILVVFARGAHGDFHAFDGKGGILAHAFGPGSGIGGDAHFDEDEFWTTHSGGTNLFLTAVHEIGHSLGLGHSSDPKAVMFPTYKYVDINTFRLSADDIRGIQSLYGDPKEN

One may read the melting point as the temperature, or range, at which the solid turns liquid. For `C[Si](C)(C)c1ccc(N2CCN(C3(c4ccc(Oc5ccc(Br)cc5)cc4)C(=O)NC(=O)NC3=O)CC2)cc1`, the melting point lay within 205 to 210 °C.

A word on the IC50: it is the concentration that gives 50% inhibition. For the molecule `O=C1NC(=O)C(c2ccc(Oc3ccc(Br)cc3)cc2)(N2CCN(CCO)CC2)C(=O)N1` [Compound 2, 5-[4-(4-bromo-phenoxy)phenyl]-5-[4-(2-hydroxyethyl)piperazin-1-yl]-pyrimidine-2,4,6-trione, reference compound], the results for the half-maximal inhibitory concentration (IC50) at MMP-9 [1] and on MMP-2 [2] were 4 nM and 9 nM, respectively.

For `COc1ccc(Oc2ccc(C3(N4CCN(CCO)CC4)C(=O)NC(=O)NC3=O)cc2)cc1` [Compound 3, 5-[4-(2-hydroxyethyl)piperazin-1-yl]-5-[4 (4-methoxy-phenoxy)phenyl]-pyrimidine-2,4,6-trione, reference compound], the IC50 against MMP-9 [1] is 6 nM; on MMP-2 [2], 9 nM.

For the molecule `O=C1NC(=O)C(c2ccc(Oc3ccc(I)cc3)cc2)(N2CCN(CCO)CC2)C(=O)N1` [Compound 4, 5-[4-(2-Hydroxyethyl)piperazin-1-yl]-5-[4-(4-iodo-phenoxy)phenyl]-pyrimidine-2,4,6-trione], the half-maximal inhibitory concentration (IC50) on MMP-9 [1] came out at 2 nM; at MMP-2 [2], 7 nM.

As usually defined, the Ki is the dissociation constant of the complex between target and ligand, obtained from inhibition or displacement. As for `O=C1NC(=O)C(c2ccc(Oc3ccc(Br)cc3)cc2)(N2CCN(CCCF)CC2)C(=O)N1` [Compound 7, 5-[4-(4-Bromophenoxy)phenyl]-5-[4-(3-fluoropropyl)-piperazin-1-yl)-pyrimidine-2,4,6-trione], the values for the inhibitory constant (Ki) on MMP-2 [3] and on MMP-9 [4] were 11 nM and 2 nM, respectively.

For the molecule `O=C1NC(=O)C(c2ccc(Oc3ccc(Br)cc3)cc2)(N2CCN(C(=O)CSCCCF)CC2)C(=O)N1` [Compound 9], the inhibition constant Ki is 5 nM on MMP-2 [3], 0.3 nM on MMP-9 [4] and 11 nM on MMP-12.

Take `CC(=NO)C(C)(C)NCCC(CCNC(=O)CCN1CCN(C2(c3ccc(Oc4ccc(Br)cc4)cc3)C(=O)NC(=O)NC2=O)CC1)CCNC(C)(C)C(C)=NO` (stereo not drawn) [Compound 16, 3-(4-{5-[4-(4-Bromophenoxy)-phenyl]-2,4,6-trioxohexahydropyrmidin-5-yl}-piperazin-1-yl)N-{5-(2-hydroxylimino-1,1-dimethylpropylamino)-3-[2-(2-hydroxylamino-1,1-dimethylpropylamino)-ethyl]-pentyl}-propionamide]: the inhibition constant Ki on MMP-2 [3] is 14 nM; at MMP-9 [4], 3 nM.

As for `CC(=NO)C(C)(C)NCCC(CCNC(=O)CCCC(=O)NCCN1CCN(C2(c3ccc(Oc4ccc(Br)cc4)cc3)C(=O)NC(=O)NC2=O)CC1)CCNC(C)(C)C(C)=NO` (stereo not drawn) [Compound 17], the Ki on MMP-2 [3] stood at 29 nM; at MMP-9 [4], 10 nM; at MMP-12 (colourimetric kit, thiopeptolide substrate, 37° C., 414 nm, read-out: MMP-12 (Ki)), 157 nM.

With `O=C1NC(=O)C(c2ccc(Oc3ccc(Br)cc3)cc2)(N2CCN(c3ccc(F)cc3)CC2)C(=O)N1` [Compound 20, 5-[4-(4-Bromo-phenoxy)phenyl]-5-[4-(4-fluorophenyl)piperazin-1-yl]-pyrimidine-2,4,6-trione], the figures for the IC50 on MMP-9 [1] and at MMP-2 [2] were 19 nM and 12 nM, respectively.

Turning to `O=C1NC(=O)C(Nc2ccc(I)cc2)(c2ccc(Oc3ccc(Br)cc3)cc2)C(=O)N1` [Compound 24, 5-[4-(4-Bromophenoxy)-phenyl]-5-(4-iodophenylamino)-pyrimidine-2,4,6-trione], the inhibition constant Ki turned out to be 45 nM at MMP-2 [3] and 20 nM at MMP-9 [4].
